Test results reported in PubChem BioAssay AID504565 (NMMLSC, 2011).

System: Mouse 2C CD8+ T cell-vesicle binding, flow cytometry
Experiment: modulators of CD8 T cell-vesicle binding, dose response, powder samples, mouse 2C CD8+ cells (AID 504565)
[1] = CD8+ 90th percentile fluorescence
[2] = double positive events percentage

EC50 [1] [µM] | EC50 [2] [µM] | Structure (SMILES)
34.9 | 39.8 | O=C(c1ccc(N2C(=O)C3CC=C(Cl)CC3C2=O)cc1)N1CCCCC1 (stereo unspecified)
20.7 | 20.2 | COc1ccc(S(=O)(=O)N2CCCC2C(=O)Nc2ccc(C(C)=O)cc2)cc1 (stereo unspecified)
0.239 | – | CCOc1ccc(-c2nc(N)ncc2-c2ccccc2)c(O)c1
22.6 | – | Cc1cc(Cl)c(OCCCSc2nc(C)cc(=O)[nH]2)c(Br)c1
6.43 | 7.96 | COCc1c(C(=O)Nc2cccc(S(=O)(=O)N3CCCCC3)c2)oc2ccccc12
8 | 9.84 | CN(CC(=O)Nc1cc(S(=O)(=O)N2CCCC2)ccc1Cl)Cc1ccc2c(c1)OCO2
34.8 | 33.7 | O=C(O)C1CCC(Cn2c(SCc3cc(=O)n4cc(Cl)ccc4n3)nc3ccsc3c2=O)CC1 (stereo unspecified)
21.4 | 17.1 | O=C(NCC1CCCCC1)c1ccc(Cl)c(S(=O)(=O)N2CCOCC2)c1
17 | 16.3 | Cc1ccccc1C(=O)N1CCC(C(=O)Nc2ccc(C)c(S(=O)(=O)N3CCCCC3)c2)CC1
37.7 | 34.4 | CCOC(=O)C1CCCN(S(=O)(=O)c2ccc(F)c(C(=O)Nc3ccc(F)c(F)c3)c2)C1 (stereo unspecified)
8.26 | 3.22 | O=C(COC(=O)C12CC3CC(CC(Br)(C3)C1)C2)Nc1cccc(S(=O)(=O)N2CCOCC2)c1
14 | 10.4 | CCOC(=O)c1ccc(S(=O)(=O)N2CCN(C3CCCC3)CC2)cc1
0.6 | 0.63 | CCOCC(=O)Nc1ccc(S(=O)(=O)N2CCC(c3nc4ccccc4[nH]3)CC2)cc1
38.8 | 37.6 | CCN(CC)S(=O)(=O)c1ccc(Cl)c(NC(=O)COC(=O)C2CCCCC2)c1
